Values joined by “and” are separate entries in the source; they are usually repeats but may differ in a detail not shown here. Equal entries are not always repeated. Where two headings read alike, the source gives them in different places.
Key:
[1] = test system: living monkey eye; conditions: in vivo
[2] = test system: living monkey eye; format: in vivo, cynomolgus monkeys (Macaca fascicularis); conditions: for (LAT-B/BL)/(Veh/BL) / Facility LAT-B/Vehicle / Facility, LAT-B eye: 2 hr wait
[3] = test system: cornea; experiment: Corneal thickness by ultrasonic pachymetry; format: in vivo, cynomolgus monkeys (Macaca fascicularis)
Procedure: Corneal thickness was measured using a DGH-1000 ultrasonic pachymeter (DGH Technology). All eyes were examined by biomicroscopy prior to baseline measurements. Monkeys were placed supine in head holders. The central cornea was measured once and the peripheral cornea was measured four times midway between the center and the limbus on the vertical and horizontal axes. For each point in each eye, two baseline thickness measurements were averaged, and 4.0 μg LAT-B or 25% DMSO was administered to opposite eyes in the LAT-B protocol, or 25% DMSO or Bárány's administered to opposite eyes in the DMSO control protocol. The eyelids were held open manually during and for 5 min. after drug or vehicle administration. Corneal thickness was measured every 30-min. for 6 hr and again at 24 hr.

[4] = test system: living monkey eyes; experiment: Slit lamp biomicroscopy (ocular tolerability); format: in vivo, cynomolgus monkeys (Macaca fascicularis); conditions: for lens appearance: after topical drug; for corneal epithelium at slit lamp: topical LAT-A (21 or 42 μg) or LAT-B (4 μg) in 25% DMSO; for eyes that developed flare (1-2+ on a scale of 0-4+): topical, recovered by 24-48 hr
Procedure: e) Ocular Tolerability/Toxicity: Ocular exams, including slit lamp biomicroscopy (Zeiss or Haag-Streit), gonioscopy, and binocular indirect ophthalmoscopy (American Optical or Keeler), were performed by a trained ophthalmologist, using when necessary contact lenses specially fabricated for the small monkey eye (Kaufman and Wallow, Exp. Eye Res., 40:883-885[1985]). In addition, specular microscopy was used to evaluate drug effects on the corneal endothelium.
The AC of both eyes of was cannulated with a branched needle as above, after which baseline facility measurements were taken for 35-45 min. With reservoirs closed, 2×5 μl drops of 200 μM (˜0.8 μg) or 4×5 μl drops of 500 μM (˜4.0 μg) LAT-B were given to one eye of the prone monkey, allowing 60-90 sec between drops. […] Vehicle (10 or 25% DMSO respectively) was given simultaneously to the opposite eye in a similar manner. The doses were chosen to give […] and 1 μM LAT-B concentrations respectively in the 100 μl monkey AC (See e.g., Erickson-Lamy et al., Arch. Opthalmol., 102:1815-1820[1984]), assuming 1% penetration and no initial drug loss from the AC (Asseff et al., Amer. J. Ophthalmol., 75:212-215[1973]; Harris, in Leopold (ed.), Symposium on Ocular Therapy, C. V. Mosby, St. Louis, Mo., [1968], pp. 96-105; Janes and Stiles, Arch. Ophthahnol., 62:69-74[1959]). The perfusion system remained closed for 2 hr, after which facility measurements were taken for 90 min. Biomicroscopy was performed by an ophthalmologist before and 3, 7 and 14 days after drug administration.
For slit lamp biomicroscopy, a trained ophthalmologist examined all eyes by slit lamp, for integrity of the corneal epithelium and endothelium, presence of flare or cells in the anterior chamber and clarity of the lens. All animals were free of ocular abnormalities when studied.

[5] = test system: living monkey eye; conditions: living monkeys; cited from earlier work
[6] = test system: ciliary muscle-disinserted monkey eyes; experiment: Outflow facility in ciliary muscle-disinserted eyes; format: in vivo, cynomolgus and rhesus monkeys
[7] = test system: bovine aortic endothelial cells; experiment: Actin filaments and C-C adhesions in cultured endothelial cells; format: cell-based
[8] = test system: living monkey eyes; experiment: Blood-aqueous barrier permeability to systemic fluorescein; format: in vivo, cynomolgus monkeys (Macaca fascicularis); conditions: 42 μg LAT-A topical
Procedure: Topical LAT-A (42 μg) was given to one eye and vehicle to the opposite eye as described above, 1 hr prior to intravenous injection of fluorescein Na in the saphenous vein (10 mg/kg in 500-600 μl) followed by a 4 ml saline flush. The concentration of fluorescein ([fluorescein]) in the cornea and AC was determined by fluorophotometry 15, 30, 45, 60, 90, 120, 180 and 240 min after fluorescein injection.

[9] = LAT-B 0.8 μg topical, 0-30 min, n=5
[10] = LAT-B 0.8 μg topical, 30-60 min, n=5
[11] = LAT-B 0.8 μg topical, 60-90 min, n=5
[12] = LAT-B 4.0 μg topical, 0-30 min, n=5
[13] = LAT-B 4.0 μg topical, 30-60 min, n=5
[14] = LAT-B 4.0 μg topical, 60-90 min, n=5

## C/C1=C/C(=O)O[C@@H]2C[C@@H](CC[C@H](C)/C=C\CC1)O[C@@](O)([C@@H]1CSC(=O)N1)C2 [LAT-B]
[1]
  BL2/BL1, LAT-B eye: 0.90 ± 0.05
  BL2/BL1, LAT-B/Veh: 0.96 ± 0.06
  Baseline facility BL2, LAT-B eye: 0.33 ± 0.03 μl min^−1 mmHg^−1
  Baseline facility BL2, LAT-B/Veh: 1.01 ± 0.08
  baseline facility vs baseline immediately prior to LAT-B: not significantly different
  facility increase, average over 90 min: 456±128%
  initial post-drug facility increase over final baseline value: 379±125%
  potency relative to LAT-A in the live monkey TM: at least 10 fold
[2]; 2 hr after LAT-B 4.0 μg topical, n=5
  initial post-drug facility increase over final baseline value: 173±73%
[2]; LAT-B 0.8 μg Top, n=5
  PRxf (final post-drug) facility, LAT-B eye: 1.54 ± 0.33 μl min^−1 mmHg^−1
  PRxf facility, LAT-B/Veh: 2.82 ± 1.22
  PRxf/BLf, LAT-B eye: 3.78 ± 0.70
  PRxf/BLf, LAT-B/Veh: 2.12 ± 0.64
  PRxf/PRxi, LAT-B eye: 3.41 ± 0.73
  PRxf/PRxi, LAT-B/Veh: 1.50 ± 0.28
  PRxi (first post-drug) facility, LAT-B eye: 0.47 ± 0.08 μl min^−1 mmHg^−1
  PRxi facility, LAT-B/Veh: 1.65 ± 0.38
  PRxi/BLf, LAT-B eye: 1.16 ± 0.11
  PRxi/BLf, LAT-B/Veh: 1.36 ± 0.16
[2]; [9]
  (LAT-B/BL)/(Veh/BL): 1.84
  Facility LAT-B/Vehicle: 2.30
  Facility, LAT-B eye: 0.80 μl min^−1 mmHg^−1
[2]; [10]
  (LAT-B/BL)/(Veh/BL): 2.59
  Facility LAT-B/Vehicle: 3.37
  Facility, LAT-B eye: 1.35 μl min^−1 mmHg^−1
[2]; [11]
  (LAT-B/BL)/(Veh/BL): 2.37
  Facility LAT-B/Vehicle: 3.14
  Facility, LAT-B eye: 1.50 μl min^−1 mmHg^−1
[2]; LAT-B 0.8 μg topical, n=5, p=NS
  facility increase, averaged over 90 min: 123±67%
[2]; LAT-B 4.0 μg Top, n=5
  PRxf (final post-drug) facility, LAT-B eye: 2.03 ± 0.31 μl min^−1 mmHg^−1
  PRxf facility, LAT-B/Veh: 3.92 ± 0.58^∥
  PRxf/BLf, LAT-B eye: 6.19 ± 0.48
  PRxf/BLf, LAT-B/Veh: 3.69 ± 0.55^∥
  PRxf/PRxi, LAT-B eye: 3.16 ± 1.08
  PRxf/PRxi, LAT-B/Veh: 1.80 ± 0.53
  PRxi (first post-drug) facility, LAT-B eye: 0.98 ± 0.27 μl min^−1 mmHg^−1
  PRxi facility, LAT-B/Veh: 3.19 ± 1.16
  PRxi/BLf, LAT-B eye: 3.03 ± 0.94
  PRxi/BLf, LAT-B/Veh: 2.73 ± 0.73
[2]; [12]
  (LAT-B/BL)/(Veh/BL): 3.68
  Facility LAT-B/Vehicle: 4.49
  Facility, LAT-B eye: 1.64 μl min^−1 mmHg^−1
[2]; [13]
  (LAT-B/BL)/(Veh/BL): 4.03
  Facility LAT-B/Vehicle: 4.74
  Facility, LAT-B eye: 2.19 μl min^−1 mmHg^−1
[2]; [14]
  (LAT-B/BL)/(Veh/BL): 3.68
  Facility LAT-B/Vehicle: 4.22
  Facility, LAT-B eye: 2.11 μl min^−1 mmHg^−1
[2]; LAT-B 4.0 μg topical, n=5
  facility increase, averaged over 90 min: 272±45%
[3]; 4.0 μg LAT-B topical, 3.5 hr, n=8
  central corneal thickness increase vs contralateral control eyes (maximum): ~47 μm and 47±17 μm
[3]; 4.0 μg LAT-B topical, 24 hr
  central and peripheral corneal thickness: returned to baseline
[3]; LAT-B, hour 3.5 (maximal change)
  central cornea thicker compared to normal monkey cornea: ~10%
[4]; 4 μg LAT-B
  recovery of corneal endothelium: by 6 hr, the corneal endothelium of almost all treated eyes had recovered
[4]; LAT-B 0.8 μg topical, 3 days after drug and AC perfusion
  biomicroscopy findings: no adverse effects
[4]; LAT-B 4.0 μg topical, day 3 after perfusion
  biomicroscopy findings: two drug-treated eyes exhibited a small clot of blood in the AC
[4]; LAT-B topical, day 7
  biomicroscopy findings: all eyes appeared biomicroscopically normal
[4]
  lens appearance: always appeared normal
  corneal epithelium at slit lamp: mild transient corneal epithelial cloudiness
  eyes that developed flare (1-2+ on a scale of 0-4+): one LAT-B-treated eye
[5]
  potency relative to LAT-A (outflow facility): 10 times

## C/C1=C/C(=O)O[C@@H]2C[C@@H](CC[C@H](C)/C=C\C=C\CC1)O[C@@](O)([C@@H]1CSC(=O)N1)C2 [LAT-A]
[1]
  BL2/BL1, Rx eye: 1.24 ± 0.19
  BL2/BL1, Rx/Cont: 1.12 ± 0.15
  Baseline facility BL2, Rx eye: 0.42 ± 0.06 μl/min/mmHg
  Baseline facility BL2, Rx/Cont: 1.07 ± 0.17
  effect on facility: probably ineffective
  reversibility of the facility-effect: minimal
[6]; Lat-A 5.0 μM
  facility increase, control (non-disinserted) eyes: 328±35%
[6]; Lat-A 5.0 μM OU, n=9
  Facility PRx, CM Dis eye: 0.65 ± 0.23 μl/min/mmHg
  Facility PRx, CM Dis/Cont: 0.43 ± 0.15
  Facility PRx, Cont (non-disinserted, drug-treated) eye: 1.51 ± 0.30 μl/min/mmHg
  PRx/BL, CM Dis eye: 4.53 ± 1.29
  PRx/BL, CM Dis/Cont: 1.06 ± 0.27
  PRx/BL, Cont (non-disinserted, drug-treated) eye: 4.28 ± 0.35
[6]; Lat-A 5.0 μM, n=9
  facility increase, ciliary muscle-disinserted eyes: 353±129%
[7]; concentrations greater than 0.5 μM, 1 hour of exposure
  effects on actin filaments and C-C adhesions: unequivocal effects
[7]; lower concentrations
  effects on actin filaments and C-C adhesions: more subtle slower onset effects
[8]; 15 min after i.v. fluorescein (1.25 hr after LAT-A)
  [fluorescein]cornea, LAT-A-treated vs vehicle-treated eyes: ~10 times
[8]; 240 min after i.v. fluorescein
  [fluorescein]cornea, LAT-A-treated vs vehicle-treated eyes: ~1.5 times
[8]; 240 min after i.v. fluorescein, n=4
  [Fluorescein]AC higher in LAT-A eyes than in vehicle-treated eyes: 24±3%
[4]
  lens appearance: always appeared normal
  corneal epithelium at slit lamp: mild transient corneal epithelial cloudiness
  eyes that developed flare (1-2+ on a scale of 0-4+): Four LAT-A- treated eyes

Reference: patent US6586425B2, “Cytoskeletal active agents for glaucoma therapy” (Wisconsin Alumni Research Foundation, priority 1996, dated 2003)
